# Tests used:
# [1] = tested on: SKOV-3 (human ovarian cancer); experiment: PTX cytotoxicity, MTT assay, SKOV3; assay type: cell-based; conditions: SK-OV-3, SKOV3, 72 hours
# Experimental: (§1) Cells were seeded at a density of 10,000 cells per well in a 96-well and incubated overnight in 200 μL of complete medium. The culture medium was then replaced with 198 μL of fresh medium, two free drug/DMSO solution or NP suspensions in the final concentration ranging from 0.001 to 10,000 nM. After 72 hours of incubation, the medium was replaced with 100 μL of fresh medium containing 13% MTT and incubated for 3.5 hours. Finally, 100 μL of the solubilization/stop solution comprising 20% SDS, 0.02% v/v acetic acid, and 50% v/v DMSO was added to each well, and the absorbance was read at 560 nm by the microplate reader. Cell viability was calculated by dividing the absorbance of treated cells by that of untreated cells after subtracting the absorbance of cell-free medium from each. Here, the untreated cells were those provided with no drug but handled equally otherwise, and the cell-free medium was the medium mixed with MTT solution and stop-solution without cells.
# (§2) Cell viability was determined as described in Example 5.
# [2] = tested on: Calu6 (human lung cancer); experiment: PTX cytotoxicity, MTT assay, Calu6; assay type: cell-based; conditions: Calu-6, Calu6, 72 hours
# Experimental: as §1, §2
# [3] = tested on: BR5FVB1-Akt (murine ovarian cancer); experiment: PTX cytotoxicity, MTT assay, BR5FVB1-Akt; assay type: cell-based; conditions: Mus musculus, 72 hours
# Experimental: as §1, §2
# [4] = PTX content in murine blood and peritoneal cavity after IP dosing; assay type: in vivo; conditions: female, FVB, mouse, mice, IP 5 mg/kg, 3 hours post dosing
# Experimental: Six week-old female FVB mice were obtained from Charles River Laboratory (Boston, USA). Mice were housed in a pathogen-free facility in accordance with the standards of the Dana-Farber Cancer Institute. All animal experiments were approved by the Institute's IACUC. Mice were kept in groups of 4-5 per cage in a 12 hour light/12 hour dark cycle and housed at 25° C. with 50% relative humidity. […] Mice were anaesthetized, and blood samples were collected via retro-orbital bleeding 3 hours post dosing. Blood samples were kept on ice until centrifugation. Samples were centrifuged at 1,400 RCF for 10 min, and plasma was collected. After blood sample collection, mice were sacrificed, and their peritoneal cavities were washed thrice post-mortem with PBS. Plasma and peritoneal washes were flash frozen with liquid nitrogen and lyophilized. The lyophilized powders were rehydrated in 300 μL water and extracted with tert-butyl methyl ether (tBME). The organic solvent was dried under nitrogen.
# [5] = tested on: BR5FVB1-Akt cells; experiment: Survival study in immunocompetent murine model of ovarian cancer; assay type: in vivo, mouse; conditions: FVB mice, IP 5 mg/kg twice weekly, five doses
# Experimental: The BR5FVB1-Akt mouse ovarian cancer cell line was cultured in DMEM supplemented with 10% FBS and 1% penicillin/streptomycin at 37° C. with 5% CO2. Subconfluent BR5FVB1-Akt cells were trypsinized, washed, and suspended in opti-MEM as a single-cell suspension. Six week-old female FVB mice were injected IP with a total volume of 400 μl opti-MEM containing 3.75×10^6 BR5FVB1-Akt cells.
# Mice were sacrificed by CO2 asphyxiation upon ascites development. Their peritoneal cavities were opened postmortem to observe tumor location and extent of metastasis in the peritoneal region. All FVB mice inoculated with BR5FVB1-Akt cells developed tumors. Tumors developed gradually and manifested by formation of ascites in the peritoneal cavity. Tumors were detectable post-mortem as nodules of various sizes and number on the peritoneal wall or adhered to the intestine.
# Statistical analysis was performed with GraphPad Prism 5 (La Jolla, Calif., USA). Statistical significance among groups was determined by one-way ANOVA, and pairs were compared by Tukey's multi-comparison test. Survival groups were compared using a Mantel-Cox test.
# [6] = tested on: 4T1 cells; experiment: Viability of 4T1 cells exposed to Dox or Dox-laden nanoparticles through matrigel; assay type: cell-based; conditions: 500 ng/mL Dox; 3, 6 and 24 hours
# Experimental: Nanoparticles with doxorubicin in the core were formed as described in Example 1, except doxorubicin was added to the organic solvent. The particles were coated as described in Example 10. To test the cell viability for cells exposed to doxorubicin particles, 500 ng/mL of Dox or Dox-laden nanoparticles were added to matrigel on top chamber of a 24 well plates seeded with 4T1 cells. Plates were incubated at 37° C., while gently shaken. The viability was measured at 3 hours, 6 hours, and 24 hours. Cell viability was determined as described in Example 5. For the mammosphere assay, 4T1 cells were seeded at 1000 cells/150 uL/well in 96 well ultra-low adherence plate. The remaining 4T1 cells after treatment were harvested and filtered and the number of mammospheres counted using microscopy.
Structure (SMILES),IC50 [1] [nM],IC50 [2] [nM],IC50 [3] [nM],concentration at 3 h ([4]; peritoneal lavage (PBS wash of peritoneal cavity)) [ng/mL],concentration at 3 h ([4]; plasma) [ng/mL],tumor onset [5],viability of cells [6]
"CC(=O)O[C@H]1C(=O)[C@@]2(C)[C@H]([C@H](OC(=O)c3ccccc3)[C@]3(O)C[C@H](OC(=O)[C@H](O)[C@@H](NC(=O)c4ccccc4)c4ccccc4)C(C)=C1C3(C)C)[C@]1(OC(C)=O)CO[C@@H]1C[C@@H]2O [PTX, paclitaxel]",~10,~10,~100,4500 ± 1300,9500 ± 1900,developed tumors at similar time points,–
"COc1cccc2c1C(=O)c1c(O)c3c(c(O)c1C2=O)C[C@@](O)(C(=O)CO)C[C@@H]3O[C@H]1C[C@H](N)[C@H](O)[C@H](C)O1 [Dox in solution, doxorubicin]",–,–,–,–,–,–,reduced viability of cells

# — patent US20170266123A1, “COATED PARTICLES FOR DRUG DELIVERY” (Dana-Farber Cancer Institute, Inc., priority 2014, published 2017)
